From PubChem BioAssay AID1919007 (Molecular Pharmacology Branch, DTP, NCI, 2023) come the findings set out here.

pIC50: −log10 of the molar value. Values joined by “and” are separate entries in the source; they are usually repeats but may differ in a detail not shown here. Equal entries are not always repeated.

Usually viability, T/C stands for the result in the treated group divided by that in the control group, in per cent. What is called pIC50 is the negative decadic logarithm of the IC50, by convention in mol/L.

The subject of the assay is A498 complex spheroids with HUVEC/MSC, growth. As to the kind of experiment: Anticancer human tumor A498 cell line growth inhibition [AhR].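 As to all read-outs here: seven day exposure starting three days after spheroid seeding.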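 As to viability, T/C: luminescence signal used as a surrogate for viable cells; luminescence viability scaled so 100% equals DMSO vehicle wells.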 To be noted: for viability, T/C: stronger effect = lower value; for pIC50: curve of compound. An excerpt:
Multicellular complex tumor spheroid response to aryl hydrocarbon receptor antagonists in combination with a variety of drugs and investigational agents in selected tumor cell lines
The current study was undertaken to assess response to aryl hydrocarbon receptor antagonists in combination with standard-of-care drugs and investigational agents in solid tumor complex spheroid models. Complex spheroids include a stromal component modeled by human endothelial cells (HUVEC) and fibroblasts modeled by human mesenchymal stem cells (MSCs). The concentration ranges selected for each drug and investigational agent were based upon clinically achievable concentrations if the clinical Cmax of the agent was known.
Compounds. The drugs and investigational agents: BAY 2416964 (NSC825713), GNF351 (NSC835774), CH-223191 (NSC835775), CPI-455 (NSC825282), aza-TdCyd (NSC777586), decitabine (NSC127716), belinostat (NSC758774), entinostat (NSC756642), pevonedistat (NSC761192), tazemetostat (NSC777109), talazoparib (NSC765396), olaparib (NSC753686), selinexor (NSC780203), nedisertib (M3814, NSC802822), bortezomib (NSC756655), venetoclax (NSC766270), doxorubicin (NSC123127), elimusertib (BAY189344, NSC800525), ceralasertib (AZD6738, NSC777638), TAK-243 (NSC785004), alisertib (NSC759677), etoposide (NSC141540), topotecan (NSC609699), eribulin (NSC707389), gemcitabine (NSC613327), carboplatin (NSC241240), cisplatin (NSC119875), and SN-38 (NSC673596) were obtained from the National Cancer Institute (NCI) Developmental Therapeutics Program Chemical Repository (32). The FDA-approved anticancer drug set is available from the Developmental Therapeutics Program at https://dtp.cancer.gov/organization/dscb/obtaining/available plates.htm. […] The stock solutions were prepared in dimethyl sulfoxide (DMSO, Sigma-Aldrich, St. Louis, MO, cat. D2650), except for the platinum compounds which were prepared in saline (Quality Biological, Gaithersburg, MD, cat. 114-055-101), at 800-fold the tested concentration and stored at -70 degrees C prior to their use. All drugs and investigational agents were tested over a range starting from a high concentration at or near the clinical Cmax and decreasing in half-log increments. If the clinical Cmax for an agent had not been determined, the highest concentration tested was 10 microM (Table 1).
Cell Culture. All cells were maintained in an incubator at 37 degrees C and 5% CO2 with 95% humidity. The PDC lines were cultured according to standard operating procedures established by the NCI PDMR (https://pdmr.cancer.gov). Briefly, all PDCs were thawed and cultured in Matrigel-coated flasks prepared with a working solution of 1X Ham's F-12 nutrient mix, without supplementation (Invitrogen, Waltham, MA, cat. 11765054), 100 U/mL penicillin-streptomycin (Invitrogen, cat. 15140122), and 2.5% Matrigel (Corning Inc., Corning, NY, cat. 354248) for the first three passages. All PDCs were cultured in complete DMEM/F-12 media containing advanced DMEM/F-12 (Invitrogen, cat. 12634028), 4.9% defined fetal bovine serum, heat inactivated (HyClone Laboratories Inc., Logan, UT, cat. SH30070.03HI), 389 ng/mL hydrocortisone (Sigma-Aldrich, cat. H4001), 9.7 ng/mL human EGF recombinant protein (Invitrogen, cat. PHG0313), 23.4 microg/mL adenine (Sigma-Aldrich, cat. A2786), 97.3 U/mL penicillin-streptomycin (Invitrogen, cat. 15140122), 1.9 mM L-glutamine (Invitrogen, cat. 25030081), and 9.7 microM Y-27632 dihydrochloride (Tocris Bioscience, Bristol, United Kingdom, cat. 1254). The PDCs were cultured in complete DMEM/F12 media without 10 microM Y-27632 dihydrochloride for at least two passages prior to the screen. The established cell lines NCI-H1341 and […] were cultured in DMEM/F-12, HEPES (Invitrogen, cat. 11330032), 5% defined fetal bovine serum (HyClone Laboratories Inc., cat. SH30070.03), ITS premix universal culture supplement [insulin (5 microg/mL), transferrin (5 microg/mL), and selenious acid (5 ng/mL)] […]

For the compound `CC(C)CC(NC(=O)C(Cc1ccccc1)NC(=O)c1cnccn1)B(O)O` (stereo not drawn), the negative-log IC50 (pIC50) is 8.24 and 8.45. The viability, T/C (compound 0.000949 µM) is 103% and 105% and 98.6%. Where the note is “compound 0.003 µM”, the viability, T/C is 106% and 99.9% and 58.5%. Further, the viability, T/C (compound 0.00949 µM) is 6.74% and 11.6% and 2.52%. Under “compound 0.03 µM”, the viability, T/C was 1.23% and 2.41% and 0.68%. Moreover, the viability, T/C (compound 0.0949 µM) was 0.52% and 1.47% and 1.32%. The viability, T/C (compound 0.3 µM) is 0.53% and 0.64% and 0.32%.
Take `CC1(C)CCC(CN2CCN(c3ccc(C(=O)NS(=O)(=O)c4ccc(NCC5CCOCC5)c([N+](=O)[O-])c4)c(Oc4cnc5[nH]ccc5c4)c3)CC2)=C(c2ccc(Cl)cc2)C1`: the pIC50 was 5.22 and < 5.00 and 5.21. Moreover, the viability, T/C (compound 0.0316 µM) was 99.2% and 106% and 101%. The viability, T/C (compound 0.1 µM) is 115% and 103% and 98.6%. Moreover, under “compound 0.316 µM”, the viability, T/C was 96.3% and 101% and 95.3%. The viability, T/C (compound 1 µM) was 86.8% and 94.5% and 92.4%. Further, the viability, T/C (compound 3.16 µM) is 80.8% and 86% and 84.5%. Also, under “compound 10 µM”, the viability, T/C is 28.3% and 56.8% and 25.5%.
`CC1COCCN1c1cc(-c2ccnn2C)c2ccnc(-c3ccn[nH]3)c2n1` (stereo not drawn): the negative logarithm of the IC50 (pIC50) was 6.78 and 6.92 and 7.04. Also, the viability, T/C (compound 0.00316 µM) was 108% and 93.8% and 98.7%. Also, the viability, T/C (compound 0.01 µM) was 111% and 87.4% and 102%. The viability, T/C (compound 0.0316 µM) was 95.7% and 68.2% and 82.7%. Under “compound 0.1 µM”, the viability, T/C is 64.3% and 61.4% and 47.2%. For the same compound, the viability, T/C (compound 0.316 µM) is 32.3% and 25.7% and 21%. Further, for the setting “compound 1 µM”, the viability, T/C is 22.3% and 15.8% and 13.9%.
With `CCN(c1cc(-c2ccc(CN3CCOCC3)cc2)cc(C(=O)NCc2c(C)cc(C)[nH]c2=O)c1C)C1CCOCC1`, the negative-log IC50 (pIC50) is below 5.52. Besides, for the setting “compound 0.00949 µM”, the viability, T/C is 105% and 107% and 106%. Further, the viability, T/C (compound 0.03 µM) was 106% (2×) and 107%. The viability, T/C (compound 0.0949 µM) was 107% and 109% and 106%. Moreover, the viability, T/C (compound 0.3 µM) is 102% (2×) and 97.8%. In addition, the viability, T/C (compound 0.949 µM) was 101% and 104% and 108%. The viability, T/C (compound 3 µM) is 103% and 104% and 110%.
Consider `CC[C@@]1(O)C(=O)OCc2c1cc1n(c2=O)Cc2cc3c(CN(C)C)c(O)ccc3nc2-1`, for which the pIC50 is below 7.00. The viability, T/C (compound 0.000316 µM) was 97.9% and 107% and 110%. The viability, T/C (compound 0.001 µM) is 103% and 111% and 112%. Also, the viability, T/C (compound 0.00316 µM) is 112% and 102% (2×). Besides, where the note is “compound 0.01 µM”, the viability, T/C is 86.9% and 93.3% and 98.7%. Besides, the viability, T/C (compound 0.0316 µM) was 79.8% and 82.3% and 85.8%. Moreover, the viability, T/C (compound 0.1 µM) was 73.1% and 85% and 66.5%.
In the case of `CCc1c2c(nc3ccc(O)cc13)-c1cc3c(c(=O)n1C2)COC(=O)[C@]3(O)CC`, the negative-log IC50 (pIC50) was 7.29 and 6.96 and 7.66. For the setting “compound 0.000949 µM”, the viability, T/C is 87% and 101% and 90.7%. Under “compound 0.003 µM”, the viability, T/C was 85.5% and 93.3% and 84.1%. Further, the viability, T/C (compound 0.00949 µM) was 65.7% and 84% and 61.2%. Besides, under “compound 0.03 µM”, the viability, T/C is 58.1% and 70.1% and 45.5%. Moreover, the viability, T/C (compound 0.0949 µM) is 42.9% and 49.1% and 37.1%. Also, the viability, T/C (compound 0.3 µM) was 33.4% and 41.5% and 29.9%.
Turning to `COc1cc(C2c3cc4c(cc3C(OC3OC5COC(C)OC5C(O)C3O)C3COC(=O)C23)OCO4)cc(OC)c1O` (stereo not drawn), the pIC50 was < 5.00 and 5.43. Moreover, where the note is “compound 0.0316 µM”, the viability, T/C was 93% and 80.8% and 89.6%. Moreover, the viability, T/C (compound 0.1 µM) was 85.5% and 80.2% and 81.8%. Also, where the note is “compound 0.316 µM”, the viability, T/C is 78.7% and 63.3% and 72.5%. The viability, T/C (compound 1 µM) was 71.5% and 64% and 69.3%. Further, the viability, T/C (compound 3.16 µM) was 66.6% and 52.6% and 68.2%. For the same compound, the viability, T/C (compound 10 µM) was 51.8% and 40% and 56.3%.
In the case of `COc1cc(Nc2ncc3c(n2)-c2ccc(Cl)cc2C(c2c(F)cccc2OC)=NC3)ccc1C(=O)O`, the negative logarithm of the IC50 (pIC50) is 5.61 and 5.47 and 5.82. Under “compound 0.0316 µM”, the viability, T/C is 80.4% and 74.9% and 66.8%. For the same compound, the viability, T/C (compound 0.1 µM) is 75.4% and 73.6% and 76.6%. The viability, T/C (compound 0.316 µM) is 72.2% and 71.5% and 58.7%. In addition, the viability, T/C (compound 1 µM) is 55.6% and 60.1% and 52.7%. Further, under “compound 3.16 µM”, the viability, T/C is 50% and 51.6% and 46%. Also, the viability, T/C (compound 10 µM) is 38.7% and 36% and 35.6%.
For the compound `COc1cccc2c1C(=O)c1c(O)c3c(c(O)c1C2=O)CC(O)(C(=O)CO)CC3OC1CC(N)C(O)C(C)O1` (stereo not drawn), the negative logarithm of the IC50 (pIC50) was 6.39 and 6.50 and 6.85. In addition, for the setting “compound 0.0316 µM”, the viability, T/C was 67.3% and 67.5% and 58.1%. Besides, the viability, T/C (compound 0.1 µM) was 70.1% and 60.3% and 55.9%. Further, the viability, T/C (compound 0.316 µM) was 56.7% and 50.1% and 38.2%. Besides, under “compound 1 µM”, the viability, T/C is 23.9% and 24.6% and 18.1%. Where the note is “compound 3.16 µM”, the viability, T/C is 1.61% and 1.62% and 1.55%. In addition, the viability, T/C (compound 10 µM) is 0.78% and 0.83% and 0.85%.
